Structure (SMILES)	melting point [°C]
CCOC(=O)c1sc(SC)c2c1CCc1sc(-c3ccccc3)nc1-2	153 to 154
CC(C)(C)C(=O)Nc1c(F)cc(F)cc1Oc1ccc(C(C)(C)C(N)=O)cc1	169 to 170
CC1CC(NC(=O)C(F)(F)F)=NN1c1ccc(C(=O)C(F)(F)F)cc1 (stereo not given)	189 to 190
O=C1C2CCCN2S(=O)(=O)N1CSc1nnnn1-c1ccccc1 (stereo not given)	99.5 to 100
CCOC(=O)c1ccc(N(NC(C)=O)C(=O)OC(C)(C)C)cc1	105 to 108
Cc1cc(C(C)N(O)C(N)=O)c(C)s1 (stereo not given)	146 to 147
CC(=NOCCOc1ccc(C[C@H](Oc2ccc(C)cc2)C(=O)O)cc1)c1ccc(-c2ccccc2)cc1	128 to 130
CCOC(=O)C(=COS(=O)(=O)c1ccc(C)cc1)c1ccccc1	159 to 160
CN(C(=O)c1ccccc1)C1CCC(=O)CC1	126 to 128
CCc1cc2c(s1)-n1c(C)nnc1C(N)N=C2c1ccccc1Cl (stereo not given)	130 to 131
NCCc1ccc(N2CCN(c3ccc(CC(=O)O)cc3)C2=O)cc1	> 250
CC1(C)Oc2cc(CCc3ccccc3)cc(O)c2C2=CC(=O)CCC21 (stereo not given)	233 to 235
CCC=CCn1c(=O)sc2c(=O)[nH]c(N)nc21	240 to 243
FC(F)(F)C(c1ccc(Cl)cc1)C(Br)c1ccccc1 (stereo not given)	143 to 146
COc1cc(C(=O)/C=C/c2c(-c3ccc(F)cc3)nc3sccn23)cc(OC)c1OC	222 to 225
CCOC(=O)c1cn(-c2cnsn2)c2c(F)c(F)c(F)cc2c1=O	167 to 169
CC(N)=CC(=O)NCCN1CCOCC1	86 to 93
N#CC(C#N)=C(NCCCN1CCCCC1)NCCCN1CCCCC1	110 to 112

Structure (SMILES)	melting point [°C]
CCN(CC)CC1CCCCN1C(=O)c1ccc(-c2[nH]nc3c2C(=O)c2c(NC(=O)NN4CCOCC4)cccc2-3)s1 (stereo not given)	210 to 212
CCCCCN1C(=O)C(c2ccc3c(c2)OCO3)(c2cc3c(cc2O)OCO3)c2ccccc21 (stereo not given)	75 to 76
Cc1[nH]c(=O)n(C(C)C)c1-c1ccc(C2CCCCC2)cc1	274
N#Cc1c[nH]cc1-c1ccccc1	123 to 125
CC(C)(C)Sc1cccc(-c2nc(=O)c3ccccc3s2)n1	153 to 154
Cn1ncnc1COc1nn2c(-c3cccc(F)c3)nncc2c1-c1ccccc1	198
CSC(C)(C(=O)O)c1ccc(CC(C)C)cc1 (stereo not given)	89 to 92
O=C1c2sc3ccccc3c2C(=O)c2sc3ccccc3c21	315
CC(=O)NC(Cl)C(Cl)(Cl)CCl (stereo not given)	70 to 72
Cc1ccc(C(=O)NC(Cc2ccccc2)NC(=S)Nc2cccc([N+](=O)[O-])c2)cc1 (stereo not given)	170 to 171
O=C1CC(=O)OC(CCl)C1 (single isomer, unassigned; (-))	98 to 99
Cc1[nH]c2ccccc2c1CCN1CCC(Oc2ccc(F)cc2)CC1	97 to 99
O=C(CN1CCOCC1)Nc1nc2c(Oc3cc(-c4ccc(C(F)(F)F)cc4)ncn3)cccc2s1	178 to 182
CCCC(=O)c1cc(C(=O)C(=O)OC(=O)C(=O)c2cc(C(=O)CCC)c(C)cc2N)c(N)cc1C	224 to 226
CC1COc2c(N3Cc4ccc(N)cc4C3)c(F)cc3c(=O)c(C(=O)O)cn1c23 (stereo not given)	272 to 276
Nc1ncc(-c2ccccc2COc2ccccc2)s1	154
CCCCCCCCCCCCCCCCCCOc1cc(C(=O)O)cc(N(CC(=O)O)CC(=O)O)c1	149 to 155
O=C(Nc1nc(-c2ccco2)c(C(=O)C2CCSCC2)s1)c1ccncc1	203 to 210

Further lines, results first:

melting point [°C]	Structure (SMILES)
196 to 198	Clc1ccc(N2CCN(Cc3c[nH]c4ncccc34)CC2)nc1
119 to 121	Cc1cc(Oc2c(Cl)cc(C(F)(F)F)cc2[N+](=O)[O-])nn1C(=O)OC(C)(C)C
63.5 to 66	CCOC(=O)/C=C/c1ccc(OCCC(C)(C)O)cc1Oc1ncc(C(F)(F)F)cc1Cl
82	CN(C)CCC1=Cc2ccccc2N(C)c2ccc(Cl)cc21
> 250	Cc1nc2nccc(O)c2cc1Br
135 to 137	COc1ccc(Br)cc1-c1ccc2nonc2c1
138 to 140	CCC(CC)n1cc(C)nc(N2CCc3cc(OC)cc(C)c32)c1=O
162 to 164	COC(=O)c1ccccc1S(=O)(=O)NC(=O)Nc1nc(C)cc(OC(F)F)n1
171 to 172	CCCSCc1cc2oc(S(N)(=O)=O)cc2cn1
119 to 122	O=Cc1cccn1-c1ccccc1[N+](=O)[O-]
135 to 136	Oc1ccc(CCCCn2cncn2)cc1
78 to 80	CCCCOc1cccc(C[C@H](NC(=O)c2coc(NS(C)(=O)=O)n2)[C@H](O)CNCc2cccc(CC)c2)c1
91 to 92	Nc1ccc(OCCn2ccnc2)cc1
58 to 60	OCC(CO)c1cccc2ccccc12
211	CC(=O)Nc1nc(C)c(S(=O)(=O)NCCO)s1
98	Cc1ccc(CCCNC(=O)Cc2ccc(OCCN)c([N+](=O)[O-])c2)cc1C
167 to 168	CC(=O)NCC1CC(c2ccc(F)cc2)=NO1 (stereo not given)
76 to 79	C=CCC1(C(=O)NCCC)c2ccccc2CCc2ccccc21
151 to 153	CCC1(CC)COC(=O)N1c1nc(-c2ccc(C#N)cc2)c(F)s1
90.5 to 92	C=CCN(C(=O)n1oc(C)c(Cl)c1=O)c1ccc(Cl)cc1Cl

melting point [°C]	Structure (SMILES)
163	CCOC(=O)c1c(O)c2cc(F)cnc2n(Cc2ccc(OC)cc2)c1=O
105 to 106	CCSc1c(N)cnc2cc(Cl)ccc12
118 to 119	COc1cc(Nc2nccc(-c3ccc(N4CCNC(CO)C4)nc3)n2)cc(OC)c1OC (stereo not given)
172 to 173	N#Cc1csc(-c2csc(C(O)(Cn3cncn3)c3ccc(F)cc3F)c2)n1 (stereo not given)
274 to 275	c1ccc(Cn2ccnc2-c2nnn[nH]2)cc1
61 to 62.5	CCC(CC)Nc1c([N+](=O)[O-])cc(C)c(Cl)c1[N+](=O)[O-]
87 to 88	COc1cccc(S(=O)(=O)c2ccc(C)nc2Nc2c(C)cc(C)cc2C)c1
150 to 152	CC(C)(CC(=O)C(=O)Nc1ccc2c(c1Br)COC2=O)c1ccccc1
114 to 118	COc1ccc(/C=C/c2c(Cl)cncc2Cl)c2c1OC(C)(C)C2
192 to 194	Cc1cc(NC(=O)c2ccccc2O)cc(Cl)c1O
198 to 200	N#Cc1c(-c2ccccc2)cc(N2CCOCC2)nc1Cl
89 to 91	Nc1cc2c(cc1[N+](=O)[O-])CC(CCO)C2 (stereo not given)
206	FC(F)(F)c1cc(-c2ccc(Cl)cc2)nc2c(-c3cccnc3)ncn12
127	Cc1c(C(F)(F)F)cnn(-c2cc(OCC3CO3)c(Cl)cc2F)c1=O (stereo not given)
28 to 29	CN(C)CCOc1cc(-c2ccccc2)on1
156 to 158	OC(CNc1cc(Cl)c(Cl)cc1Cl)Cn1ccnc1 (stereo not given)
155 to 156	Cc1oc(-c2ccccc2)nc1CCOc1ccc(C[C@@H](C(=O)O)n2cccc2)cc1
106 to 107	c1csc(-c2nc(COc3ccc(CCCCn4ccnc4)cc3)co2)c1
106 to 108	O=C1O[C@@H](CO)CN1c1cccc(F)c1
